Measured values: patent US11254652B2, “Crystalline forms of N-(4-(4-(cyclopropymethyl)piperazine-1-carbonyl)phenyl)quinoline-8-sulfonamide” (Agios Pharmaceuticals, Inc., priority 2017, dated 2022)

Key:
Assay type in all cases: physicochemical
[1] = Solubility measurements by gravimetric method in solvents at 23° C. and 50° C.; details: for solubility at 2 days: thermodynamic from solid
Method: Solubility measurements were done by gravimetric method in 20 different solvents at two temperatures (23° C. and 50° C.). About 20-30 mg of Form A, the synthesis of which is described below, was weighed and 0.75 mL solvent was added to form a slurry. The slurry was then stirred for two days at the specified temperature. The vial was centrifuged and the supernatant was collected for solubility measurement through gravimetric method. The saturated supernatant was transferred into pre-weighed 2 mL HPLC vials and weighed again (vial+liquid). The uncapped vial was then left on a 50° C. hot plate to slowly evaporate the solvent overnight. The vials were then left in the oven at 50° C. and under vacuum to remove the residual solvent so that only the dissolved solid remained. The vial was then weighed (vial+solid). From these three weights; vial, vial+liquid and vial+solid; the weight of dissolved solid and the solvent were calculated. Then using solvent density the solubility was calculated as mg solid/mL of solvent.
20-30 mg of Form A was weighed into 2 mL vial and 500 μL MeOH solvent system as outlined in the table was added. If dissolved, more solids were added to form the slurry. The slurries were then stirred for two days. The vials were centrifuged and the supernatant was collected for solubility measurement through gravimetric method by evaporation at 50° C. XRPD analysis was conducted on the solid after filtration of the slurries.
For the sake of comparison, the solubility of Compound 1, i.e., the non-crystalline freebase, was also measured in two solvent systems to see the effect of water.

[2] = Stability study of Form A under temperature/RH storage
[3] = Humidity / desiccant exposure test followed by XRPD analysis; details: for XRPD after exposure to phosphorus pentoxide (P2O5) granules: one week
Method: FIG. 5 (i) depicts X-ray powder diffraction pattern (XRPD) overlay for crystalline hemisulfate salt Form A and after exposure to 11%, 48%, and 75% relative humidity and 40° C. for two weeks. […] FIG. 5 (ii) depicts XRPD overlay for crystalline hemisulfate salt Form A and after exposure to phosphorus pentoxide (P2O5) granules at room temperature and 50° C. for one week, as well as ambient temperature in a vial for 24 hrs.
The water content by Karl Fisher was about 5.3%. […] A DVS isotherm taken at 40° C. was essentially the same as the one at 25° C. […] Humidity test was conducted on Form A with exposure to 11%, 48%, and 75% relative humidity at 40° C. for 2 weeks followed by XRPD analysis. […] Crystallographic data for Form A is as follows:
Form D was determined to be anhydrous with a melting peak at 239° C. See e.g., FIG. 9. DVS of Pattern D was performed and solid picked up about 2% moisture from 2% to 95% relative humidity.

[4] = Solubility in water and simulated fluids at 37° C. (slurry, HPLC; XRPD of residual solid); details: values based on hemi-sulfate sesqui-hydrate salt; for solubility at 1 h / solubility at 2 days: 37 °C, thermodynamic from solid; for solubility at 1 h: slurry time 1 hr
Method: Solubility of Patterns A, B and D were measured in water. The solids were slurried in the fluids for two days and at 37° C. The supernatant was syringe filtered and used for HPLC analysis. For Patterns A and D the solubility measurement was repeated and the sample was taken after 1 hr slurry. A calibration curve was developed using Pattern A. This was not assay corrected and therefore the solubility values are based on the hemi-sulfate, sesqui-hydrate salt.
Both Patterns B and D converted to Pattern A after two days slurry. Pattern D also converted to Pattern A within 1 hour slurry in Fasted state simulated gastric fluid (FaSSGF) or water. […] This could be because of the conversion of Patterns B and D to Pattern A. The solubility data and the resulting XRPD Pattern after the measurement are reported in Table 21.

O=C(c1ccc(NS(=O)(=O)c2cccc3cccnc23)cc1)N1CCN(CC2CC2)CC1 [Form A, 1-(cyclopropylmethyl)-4-(4-(quinoline-8-sulfonamido)benzoyl)piperazin-1-ium hemisulfate sesquihydrate]
solubility at 2 days ([1]; MeOH:Water (1:1), 50 °C, aqueous with cosolvent or surfactant or cyclodextrin, MeOH:Water (1:1), 50° C., read-out: Solubility): 27000 µg/mL
solubility at 2 days ([1]; MeOH:water (1:1) system as printed, 0 vol % water, organic solvent or mixture, MeOH:water (1:1) system as printed, 0 vol % water, read-out: room temperature solubility): 208000 µg/mL
solubility at 2 days ([1]; MeOH:water (1:1) system as printed, 1% water, organic solvent or mixture, MeOH:water (1:1) system as printed, 1% water, read-out: room temperature solubility): 118000 µg/mL
solubility at 2 days ([1]; MeOH:water (1:1) system as printed, 2.5% water, organic solvent or mixture, MeOH:water (1:1) system as printed, 2.5% water, read-out: room temperature solubility): 39000 µg/mL
solubility at 2 days ([1]; MeOH:water (1:1) system as printed, 5% water, organic solvent or mixture, MeOH:water (1:1) system as printed, 5% water, read-out: room temperature solubility): 5000 µg/mL
solubility at 2 days ([1]; MeOH:water (8:2), 23 °C, organic solvent or mixture, MeOH:water (8:2), 23° C., read-out: Solubility): 10000 µg/mL
solubility at 2 days ([1]; MeOH:water (8:2), 50 °C, organic solvent or mixture, MeOH:water (8:2), 50° C., read-out: Solubility): 59000 µg/mL
solubility at 2 days ([1]; MtBE, 23 °C, organic solvent or mixture, MtBE, 23° C., read-out: Solubility): 1000 µg/mL
solubility at 2 days ([1]; MtBE, 50 °C, organic solvent or mixture, MtBE, 50° C., read-out: Solubility): 3000 µg/mL
solubility at 2 days ([1]; THF, 23 °C, organic solvent or mixture, THF, 23° C., read-out: Solubility): 2000 µg/mL
solubility at 2 days ([1]; THF, 50 °C, organic solvent or mixture, THF, 50° C., read-out: Solubility): 26000 µg/mL
solubility at 2 days ([1]; THF:water (8:2), 23 °C, organic solvent or mixture, THF:water (8:2), 23° C., read-out: Solubility): 14000 µg/mL
solubility at 2 days ([1]; THF:water (8:2), 50 °C, organic solvent or mixture, THF:water (8:2), 50° C., read-out: Solubility): 77000 µg/mL
Solubility ([1]; Toluene, 23° C.): 0 mg solid/mL solvent
solubility at 2 days ([1]; Toluene:EtOH:water (10:5:0.5), 23 °C, organic solvent or mixture, Toluene:EtOH:water (10:5:0.5), 23° C., read-out: Solubility): 1000 µg/mL
solubility at 2 days ([1]; Toluene:EtOH:water (10:5:0.5), 50 °C, organic solvent or mixture, Toluene:EtOH:water (10:5:0.5), 50° C., read-out: Solubility): 4000 µg/mL
solubility at 2 days ([1]; acetone, 23 °C, organic solvent or mixture, Acetone, 23° C., read-out: Solubility): 1000 µg/mL
solubility at 2 days ([1]; acetone, 50 °C, organic solvent or mixture, Acetone, 50° C., read-out: Solubility): 6000 µg/mL
solubility at 2 days ([1]; acetone:water (8:2), 23 °C, organic solvent or mixture, acetone:water (8:2), 23° C., read-out: Solubility): 5000 µg/mL
solubility at 2 days ([1]; acetone:water (8:2), 50 °C, organic solvent or mixture, acetone:water (8:2), 50° C., read-out: Solubility): 16000 µg/mL
solubility at 2 days ([1]; acetonitrile, 23 °C, organic solvent or mixture, Acetonitrile, 23° C., read-out: Solubility): 4000 µg/mL
solubility at 2 days ([1]; acetonitrile, 50 °C, organic solvent or mixture, Acetonitrile, 50° C., read-out: Solubility): 6000 µg/mL
solubility at 2 days ([1]; cyclohexane, 23 °C, organic solvent or mixture, Cyclohexane, 23° C., read-out: Solubility): 1000 µg/mL
solubility at 2 days ([1]; cyclohexane, 50 °C, organic solvent or mixture, Cyclohexane, 50° C., read-out: Solubility): 1000 µg/mL
decrease of solubility on adding 5 vol % water ([1]; room temperature, 0 vs 5 vol % water): 42 fold
solubility at 2 days ([1]; toluene, 50 °C, organic solvent or mixture, Toluene, 50° C., read-out: Solubility): 2000 µg/mL
degradation in stability study ([2]; one month under 40±2° C./75±5% RH): No degradation
degradation in stability study ([2]; three months at 30±2° C./65±5% RH): No degradation
degradation in stability study ([2]; three months under 25±2° C./60±5% RH): No degradation
degradation in stability study ([2]; three months under 40±2° C./75% RH): No degradation
degradation in stability study ([2]; twelve months under 25±2° C./60±5% RH): No degradation
XRPD after humidity test ([3]; 11%, 48%, and 75% relative humidity at 40° C. for 2 weeks): remained unchanged
XRPD after exposure to phosphorus pentoxide (P2O5) granules ([3]; 50° C.): slightly shifted
XRPD peaks after P2O5 at 50° C. then exposure to ambient ([3]; ambient for 24 hrs, changes reversible): shifted back to original positions
XRPD after exposure to phosphorus pentoxide (P2O5) granules ([3]; room temperature): no change
solubility at 1 h ([4]; FaSSGF, fassgf or other biorelevant): 7070 µg/mL
solubility at 2 days ([4]; FaSSGF, fassgf or other biorelevant, slurry time 2 days): 6800 µg/mL
Solubility ([4]; FaSSIF, slurry time 2 days, hemisulfate sesquihydrate): 0.24 mg Solid/mL solvent
solubility at 1 h ([4]; water): 3050 µg/mL
solubility at 2 days ([4]; water, slurry time 2 days): 2690 µg/mL
